Results published in ChEMBL document CHEMBL1201862, “PubChem BioAssay data set” (2004).
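Following 48 hours of exposure in 96-well plates, responses at five concentrations were used to interpolate endpoints linearly. GI50 is the concentration that inhibits growth by half.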 Activity calls are given as the source filed them. No stated cut-off is given here; in the data, active = GI50 up to about 1.1 µM and inactive = higher.

What was measured:
Experiment in all cases: NCI-60 cell line screen, 48 h
786-0 = test system: 786-0
A498 = test system: A498
A549 = test system: A549
ACHN = test system: ACHN
BT-549 = test system: BT-549
CAKI-1 = test system: CAKI-1
CCRF-CEM = test system: CCRF-CEM
COLO 205 = test system: COLO 205
DLD-1 = test system: DLD-1
DMS-114 = test system: DMS-114
DMS-273 = test system: DMS-273
DU-145 = test system: DU-145
EKVX = test system: EKVX
HCC 2998 = test system: HCC 2998
HCT-116 = test system: HCT-116
HCT-15 = test system: HCT-15
HL-60 = test system: HL-60
HOP-18 = test system: HOP-18
HOP-62 = test system: HOP-62
HOP-92 = test system: HOP-92
HT-29 = test system: HT-29
Hs-578T = test system: Hs-578T
IGROV-1 = test system: IGROV-1
K562 = test system: K562
KM-20L2 = test system: KM-20L2
KM12 = test system: KM12
LOX IMVI = test system: LOX IMVI
M14 = test system: M14
M19-MEL = test system: M19-MEL
MCF7 = test system: MCF7
MDA-MB-231 = test system: MDA-MB-231
MDA-MB-435 = test system: MDA-MB-435
MDA-N = test system: MDA-N
MOLT-4 = test system: MOLT-4
Malme-3M = test system: Malme-3M
NCI-H226 = test system: NCI-H226
NCI-H23 = test system: NCI-H23
NCI-H460 = test system: NCI-H460
NCI-H522 = test system: NCI-H522
NCI/ADR-RES = test system: NCI/ADR-RES
OVCAR-3 = test system: OVCAR-3
OVCAR-4 = test system: OVCAR-4
OVCAR-5 = test system: OVCAR-5
OVCAR-8 = test system: OVCAR-8
PC-3 = test system: PC-3
RPMI-8226 = test system: RPMI-8226
RXF 393 = test system: RXF 393
SF-268 = test system: SF-268
SF-295 = test system: SF-295
SF-539 = test system: SF-539
SK-MEL-28 = test system: SK-MEL-28
SK-MEL-2 = test system: SK-MEL-2
SK-MEL-5 = test system: SK-MEL-5
SK-OV-3 = test system: SK-OV-3
SN12C = test system: SN12C
SNB-19 = test system: SNB-19
SNB-75 = test system: SNB-75
SNB-78 = test system: SNB-78
SR = test system: SR
SW-620 = test system: SW-620
T47D = test system: T47D
TK-10 = test system: TK-10
U-251 = test system: U-251
UACC-257 = test system: UACC-257
UACC-62 = test system: UACC-62
UO-31 = test system: UO-31
XF498 = test system: XF498
LXFL 529 = test system: LXFL 529

For `NC1=NCN(C2OC(CO)C(O)C2O)C(=O)N1` (stereo unspecified), the GI50 (786-0) was 4.52 µM (inactive), the GI50 (A498) was 6.85 µM (inactive) and the GI50 (A549) was 18.5 µM (inactive). The GI50 (ACHN) was 0.802 µM (active), the GI50 (BT-549) was 9.62 µM (inactive) and the GI50 (CAKI-1) was 69 µM (inactive). For the same molecule, the GI50 (CCRF-CEM) was 7.19 µM (inactive), the GI50 (COLO 205) was 131 µM (inactive) and the GI50 (DLD-1) was 6.52 µM (inactive). The GI50 (DMS-114) was 19 µM (inactive), the GI50 (DMS-273) was 7.64 µM (inactive) and the GI50 (DU-145) was 148 µM (inactive). The GI50 (EKVX) was 509 µM (inactive), the GI50 (HCC 2998) was 40.4 µM (inactive) and the GI50 (HCT-116) was 16.6 µM (inactive). The GI50 (HCT-15) was 4.5 µM, the GI50 (HL-60) was 0.838 µM (active) and the GI50 (HOP-18) was 22.4 µM (inactive). For the same molecule, the GI50 (HOP-62) was 152 µM (inactive), the GI50 (HOP-92) was 391 µM (inactive) and the GI50 (HT-29) was 42.3 µM (inactive). The GI50 (Hs-578T) was 23.4 µM (inactive), the GI50 (IGROV-1) was 5.74 µM (inactive) and the GI50 (K562) was 2.28 µM (inactive). For the same molecule, the GI50 (KM-20L2) was 14.5 µM (inactive), the GI50 (KM12) was 14.1 µM (inactive) and the GI50 (LOX IMVI) was 2.23 µM (inactive). For the same molecule, the GI50 (M14) was 5.71 µM (inactive), the GI50 (M19-MEL) was 70.6 µM (inactive) and the GI50 (MCF7) was 9.84 µM (inactive). For the same molecule, the GI50 (MDA-MB-231) was 38.5 µM (inactive), the GI50 (MDA-MB-435) was 6.64 µM (inactive) and the GI50 (MDA-N) was 7.87 µM (inactive). The GI50 (MOLT-4) was 5.21 µM (inactive), the GI50 (Malme-3M) was 10.9 µM (inactive) and the GI50 (NCI-H226) was 5.57 µM (inactive). The GI50 (NCI-H23) was > 88.3 µM (inactive), the GI50 (NCI-H460) was 5.48 µM (inactive) and the GI50 (NCI-H522) was 5.26 µM (inactive). For the same molecule, the GI50 (NCI/ADR-RES) was 705 µM (inactive), the GI50 (OVCAR-3) was 38.6 µM (inactive) and the GI50 (OVCAR-4) was 139 µM (inactive). The GI50 (OVCAR-5) was 183 µM (inactive), the GI50 (OVCAR-8) was 415 µM (inactive) and the GI50 (PC-3) was 342 µM (inactive). For the same molecule, the GI50 (RPMI-8226) was 1.8 µM (inactive), the GI50 (RXF 393) was 8.99 µM (inactive) and the GI50 (SF-268) was 15.1 µM (inactive). The GI50 (SF-295) was 43.4 µM (inactive), the GI50 (SF-539) was 24.3 µM (inactive) and the GI50 (SK-MEL-28) was 57.3 µM (inactive). The GI50 (SK-MEL-2) was 0.977 µM (active), the GI50 (SK-MEL-5) was 42 µM (inactive) and the GI50 (SK-OV-3) was 126 µM (inactive). For the same molecule, the GI50 (SN12C) was 349 µM (inactive), the GI50 (SNB-19) was 159 µM (inactive) and the GI50 (SNB-75) was 22.5 µM (inactive). For the same molecule, the GI50 (SNB-78) was 36.9 µM (inactive), the GI50 (SR) was 4.49 µM (inactive) and the GI50 (SW-620) was 16.7 µM (inactive). For the same molecule, the GI50 (T47D) was 15 µM (inactive), the GI50 (TK-10) was 11.4 µM (inactive) and the GI50 (U-251) was 27.9 µM (inactive). For the same molecule, the GI50 (UACC-257) was 49 µM (inactive), the GI50 (UACC-62) was 15.2 µM (inactive) and the GI50 (UO-31) was 145 µM (inactive). For the same molecule, the GI50 (XF498) was 17.5 µM (inactive).

For `O=c1[nH]n2c(=O)cc[nH]c2c1-c1nnns1`, the GI50 (786-0) was > 100 µM (inactive), the GI50 (A498) was > 100 µM (inactive) and the GI50 (A549) was > 100 µM (inactive). The GI50 (ACHN) was > 100 µM (inactive), the GI50 (CAKI-1) was > 100 µM (inactive) and the GI50 (CCRF-CEM) was > 100 µM (inactive). The GI50 (COLO 205) was > 100 µM (inactive), the GI50 (DLD-1) was > 100 µM (inactive) and the GI50 (DMS-114) was > 100 µM (inactive). For the same molecule, the GI50 (DMS-273) was > 100 µM (inactive), the GI50 (EKVX) was > 100 µM (inactive) and the GI50 (HCC 2998) was > 100 µM (inactive). For the same molecule, the GI50 (HCT-116) was > 100 µM (inactive), the GI50 (HCT-15) was greater than 100 µM and the GI50 (HL-60) was > 100 µM (inactive). For the same molecule, the GI50 (HOP-62) was > 100 µM (inactive), the GI50 (HOP-92) was > 100 µM (inactive) and the GI50 (HT-29) was > 100 µM (inactive). The GI50 (IGROV-1) was > 100 µM (inactive), the GI50 (K562) was > 100 µM (inactive) and the GI50 (KM-20L2) was > 100 µM (inactive). For the same molecule, the GI50 (KM12) was > 100 µM (inactive), the GI50 (LOX IMVI) was > 100 µM (inactive) and the GI50 (LXFL 529) was > 100 µM (inactive). For the same molecule, the GI50 (M14) was > 100 µM (inactive), the GI50 (M19-MEL) was > 100 µM (inactive) and the GI50 (MOLT-4) was > 100 µM (inactive). For the same molecule, the GI50 (Malme-3M) was > 100 µM (inactive), the GI50 (NCI-H226) was > 100 µM (inactive) and the GI50 (NCI-H23) was > 100 µM (inactive). The GI50 (NCI-H460) was > 100 µM (inactive), the GI50 (NCI-H522) was > 100 µM (inactive) and the GI50 (OVCAR-3) was > 100 µM (inactive). For the same molecule, the GI50 (OVCAR-4) was > 100 µM (inactive), the GI50 (OVCAR-5) was > 100 µM (inactive) and the GI50 (RPMI-8226) was > 100 µM (inactive). For the same molecule, the GI50 (RXF 393) was > 100 µM (inactive), the GI50 (SF-268) was > 100 µM (inactive) and the GI50 (SF-295) was > 100 µM (inactive). For the same molecule, the GI50 (SF-539) was > 100 µM (inactive), the GI50 (SK-MEL-28) was > 100 µM (inactive) and the GI50 (SK-MEL-2) was > 100 µM (inactive). The GI50 (SK-MEL-5) was > 100 µM (inactive), the GI50 (SK-OV-3) was > 100 µM (inactive) and the GI50 (SN12C) was > 100 µM (inactive). The GI50 (SNB-19) was > 100 µM (inactive), the GI50 (SNB-75) was > 100 µM (inactive) and the GI50 (SNB-78) was > 100 µM (inactive). The GI50 (SR) was > 100 µM (inactive), the GI50 (SW-620) was > 100 µM (inactive) and the GI50 (TK-10) was > 100 µM (inactive). For the same molecule, the GI50 (U-251) was > 100 µM (inactive), the GI50 (UO-31) was > 100 µM (inactive) and the GI50 (XF498) was > 100 µM (inactive).
